From patent publication US11179412B2, “Methods of treating conditions involving elevated inflammatory response” (University of Pittsburgh—Of the Commonwealth System of …, priority 2017, dated 2021)
Counter-ions that a name gives are not always drawn.

System: STING activation (IFNβ release) in iBMDMs
Test: IFNβ release ELISA after STING ligand (or LPS) stimulation, iBMDMs
Assay type: cell-based, mouse
Conditions: not given
Text: Commercially available enzyme-linked immunosorbent assay (ELISA) kits were used to measure the concentrations of mouse IFNβ (Thermo Fisher Scientific) or human IFNβ (Thermo Fisher Scientific) in culture medium according to the manufacturer's instructions. […]

Compound	fold increase in IFN-β release
Cc1cccc(-c2[nH]ncc2-c2ccc3ncccc3n2)n1 [RepSox]	0.99 fold

Same assay, conditions: iBMDMs; 3′3′-cGAMP 10 μg/ml, 16 hours; compound 10 μM

Compound	fold increase in IFN-β release
CC(=O)O[C@H]1C[C@@H]2CC[C@@H]3[C@H](CC[C@@]4(C)[C@H]3C[C@H]([N+]3(C)CCCCC3)[C@@H]4OC(C)=O)[C@@]2(C)C[C@@H]1[N+]1(C)CCCCC1.[Br-].[Br-] [Pancuronium dibromide]	1.20 fold
Cc1cc(C)nc(NS(=O)(=O)c2ccc(NC(=S)NC(=O)COc3ccc(Br)cc3Cl)cc2)n1 [ZCL278]	2.52 fold
Cc1cc(-c2ccc(CC(=O)Nc3ccc(-c4cccnc4)cc3)cc2)ccn1 [Wnt-059 (C59)]	0.13 fold
C[C@@H]1CCN(C(=O)CC#N)C[C@@H]1N(C)c1ncnc2[nH]ccc12 [Tofacitinib (CP-690550, Tasocitinib), Tofacitinib]	1.49 fold
COc1cc2c(cc1OC)CN(CCc1ccc(NC(=O)c3cc(OC)c(OC)cc3NC(=O)c3cnc4ccccc4c3)cc1)CC2 [Tariquidar]	0.77 fold
S3I-201	0.88 fold
CCOC(=O)c1ccc(N2NC(=O)/C(=C/c3ccc([N+](=O)[O-])o3)C2=O)cc1 [PYR-41]	1.13 fold
CC1(COc2ccc3c(c2)ncn3-c2ccc3cccc(N4CCC(N)CC4)c3n2)COC1 [Crenolanib (CP-868596), Crenolanib]	0.32 fold
O=C(O)c1cccc(-c2noc(-c3ccccc3F)n2)c1 [Ataluren (PTC124), Ataluren]	1.74 fold
O=C1CC[C@@]2(O)[C@H]3Cc4ccc(O)c5c4[C@@]2(CCN3CC2CC2)[C@H]1O5 [Naltrexone HCl]	3.12 fold
O=C(c1cncc(Br)c1)N1CCC(N2CCCC2)CC1 [UNC669]	1.99 fold
SNS-314 Mesylate	1.10 fold
CN[C@H]1CC[C@@H](c2ccc(Cl)c(Cl)c2)c2ccccc21 [Sertraline HCl]	0.22 fold
CCC(CC)(NC(=O)C(C)C)C(=O)N[C@@H](CCCN=C(N)N)C(=O)NC1(C(=O)NC(c2ccc(F)cc2)c2ccc(F)cc2)CCCC1 [MM-102]	2.32 fold
O=C(O)Cn1nnc(-c2cc(N3CCC(Oc4cc(F)ccc4Br)CC3)no2)n1 [MK-8245]	0.42 fold
COc1cc2c(cc1-c1c(C)noc1C)ncc1[nH]c(=O)n([C@H](C)c3ccccn3)c12 [I-BET151 (GSK1210151A)]	0.40 fold
O=C(C[S+]([O-])Cc1ccco1)NC/C=C\COc1cc(CN2CCCCC2)ccn1 (stereo not shown) [Lafutidine]	2.85 fold
Oc1ncnc2[nH]ncc12 [Allopurinol]	3.15 fold
Cc1c(C(=O)NN2CCCCC2)nn(-c2ccc(Cl)cc2Cl)c1-c1ccc(Cl)cc1 [Rimonabant]	0.81 fold
COc1ccnc2[nH]cc(C(=O)C(=O)N3CCN(C(=O)c4ccccc4)C[C@H]3C)c12 [BMS-378806]	1.70 fold
CCN(CC)C(=O)/C(C#N)=C/c1cc(O)c(O)c([N+](=O)[O-])c1 [Entacapone]	0.76 fold
CC(CCc1ccccc1)NCC(O)c1ccc(O)c(C(N)=O)c1 (stereo not shown) [Labetalol HCl]	2.96 fold
CC(=O)OCOC(=O)CN(CC(=O)OCOC(C)=O)c1ccccc1OCCOc1ccccc1N(CC(=O)OCOC(C)=O)CC(=O)OCOC(C)=O [BAPTA-AM]	0.52 fold
CCOC(=O)c1cncn1[C@H](C)c1ccccc1 [Etomidate]	0.86 fold

Compound	fold increase in IFN-β release
Cc1ccc(S(=O)(=O)c2ccc([N+](=O)[O-])o2)cc1 [NSC697923]	0.51 fold
O=C(NNc1ccccc1)c1ccncc1 [PluriSln #1 (NSC 14613)]	0.62 fold
N#Cc1ccc(C(c2ccc(C#N)cc2)n2cncn2)cc1 [Letrozole]	0.61 fold
Cc1nc(C(=O)NCC(=O)O)c(O)c2ccc(Oc3ccccc3)cc12 [FG-4592]	0.73 fold
IM-12	2.17 fold
O=C1C(=O)N(Cc2ccc(Cl)c(Cl)c2)c2ccccc21 [Apoptosis Activator 2]	0.17 fold
VU 0357121	1.49 fold
S=C=Nc1cccc(NC(=S)NCCCCNC(=S)Nc2cccc(N=C=S)c2)c1 [MRS 2578]	1.31 fold
NC(=O)c1cccc(-c2cccc(OC(=O)NC3CCCCC3)c2)c1 [URB597]	2.07 fold
COc1cc(F)c(F)c(Nc2ccc(I)cc2F)c1NS(=O)(=O)C1(C[C@H](O)CO)CC1 [Refametinib (RDEA119, Bay 86-9766), Refametinib]	0.64 fold
CC(C)n1c(/C=C/C(O)CC(O)CC(=O)O)c(-c2ccc(F)cc2)c2ccccc21 (stereo not shown) [Fluvastatin Sodium]	0.32 fold
CC(C)C[C@H](NC(=O)CNC(=O)c1cc(Cl)ccc1Cl)B(O)O [MLN2238]	4.76 fold
COc1ccc(-c2cnc3c(-c4cccc5ncccc45)cnn3c2)cc1 [ML347]	1.95 fold
COc1ccccc1N1CCN(CC(O)COc2cccc3ccccc23)CC1 (stereo not shown) [Naftopidil]	2.46 fold
COc1cc(Nc2c(C#N)cnc3cc(OCCCN4CCN(C)CC4)c(OC)cc23)c(Cl)cc1Cl [Bosutinib (SKI-606), Bosutinib]	1.78 fold
COc1ccc(C2CNC(=O)C2)cc1OC1CCCC1 (stereo not shown) [Rolipram]	1.85 fold
Ifenprodil Tartrate	1.71 fold
C=CCc1cccc(/C=N/NC(=O)CN2CCN(Cc3ccccc3)CC2)c1O [PAC-1]	0.17 fold
NC(=O)c1ccc(I)c([N+](=O)[O-])c1 [Iniparib (BSI-201), Iniparib]	0.23 fold
CC(C)Oc1ccc(-c2cnc3c(-c4ccnc5ccccc45)cnn3c2)cc1 [DMH1]	1.43 fold
Nc1ncnc2n[nH]c(Nc3ccc(F)cc3)c12 [CGP 57380]	0.54 fold
Cc1cccc(-c2nn3c(c2-c2ccnc4ccc(C(N)=O)cc24)CCC3)n1 [LY2157299]	2.50 fold
Cl.Cl.O=S(=O)(NCCNC/C=C/c1ccc(Br)cc1)c1cccc2cnccc12 [H 89 2HCl]	1.91 fold
C/C(=C\C(=O)Nc1ccccc1C(=O)O)c1ccc2ccccc2c1 [BIBR 1532]	2.10 fold

Compound	fold increase in IFN-β release
CC(C)c1onc(-c2c(Cl)cccc2Cl)c1COc1ccc(/C=C/c2cccc(C(=O)O)c2)c(Cl)c1 [GW4064]	1.26 fold
COc1cc2c(Nc3ccc(NC(=O)c4ccccc4)cc3)ncnc2cc1OCCCN1CCOCC1 [ZM 447439]	0.69 fold
NC(=O)C1CCCc2c1[nH]c1ccc(Cl)cc21 (stereo not shown) [EX 527 (Selisistat), Selisistat]	0.98 fold
Pifithrin-μ	0.16 fold
Cc1sc2c(c1C)C(c1ccc(Cl)cc1)=N[C@@H](CC(=O)Nc1ccc(O)cc1)c1nnc(C)n1-2 [OTX015]	0.43 fold
Cc1noc(-c2ccc(CSCCC(=O)O)cc2)c1NC(=O)OC(C)c1ccccc1Cl (stereo not shown) [Ki16425]	1.41 fold
CN1CCN(c2ccc(OC(F)(F)F)c(Nc3ncc4c(n3)-c3c(c(C(N)=O)nn3CCO)CC4)c2)CC1 [NMS-P937 (NMS1286937)]	0.73 fold
CNCc1ccc(-c2cc(-c3nc(-c4ccc(S(=O)(=O)C(C)C)cc4)cnc3N)on2)cc1 [VE-822]	0.86 fold
Cc1c(-c2ccnn2C)cc(C(=O)NCc2ccc(S(C)(=O)=O)cn2)c(=O)n1-c1cccc(C(F)(F)F)c1 [Alvelestat (AZD9668), Alvelestat]	0.27 fold
KX2-391	0.77 fold
CCn1c(N)c(C(=O)NC)c(=O)c2ccc(C#C[C@@](C)(O)COC)nc21 [SAR131675]	1.13 fold
Tropicamide	2.09 fold
CC(C)c1ccc(NC(=O)Cn2cnc3c2c(=O)n(C)c(=O)n3C)cc1 [HC-030031]	1.05 fold
NC1(Cc2ccc(Cl)cc2)CCN(c2ncnc3[nH]ccc23)CC1 [CCT128930]	1.46 fold
CCOC(=O)N1CCC(=C2c3ccc(Cl)cc3CCc3cccnc32)CC1 [Loratadine]	3.65 fold
C[C@](O)(COc1ccc(C#N)cc1)C(=O)Nc1ccc(C#N)c(C(F)(F)F)c1 [MK-2866 (GTx-024)]	1.47 fold
CCC(CC)CC1(C(=O)Nc2ccccc2SC(=O)C(C)C)CCCCC1 [Dalcetrapib (JTT-705, RO4607381), Dalcetrapib]	0.13 fold
CC1(C)CCC(c2ccc(Cl)cc2)=C(CN2CCN(c3ccc(C(=O)NS(=O)(=O)c4ccc(N[C@H](CCN5CCOCC5)CSc5ccccc5)c(S(=O)(=O)C(F)(F)F)c4)cc3)CC2)C1 [ABT-263 (Navitoclax), Navitoclax]	1.27 fold
Oc1ccc2ccccc2c1SSc1c(O)ccc2ccccc12 [IPA-3]	0.35 fold
Oc1c2ccccc2c2c3c(cccc13)N=N2 [SP600125]	3.35 fold
COc1cc2ncnc(Nc3ccc(Cl)cc3F)c2cc1OC [ZM 306416]	0.14 fold
Cc1ccc(NC(=O)C2(c3ccc4c(c3)OC(F)(F)O4)CC2)nc1-c1cccc(C(=O)O)c1 [VX-809 (Lumacaftor), Lumacaftor]	1.07 fold
CC(C)(C)Cn1c(N)nc2ccc(-c3[nH]c(C(C)(C)C)nc3-c3ccc(F)cc3)nc21 [LY2228820]	5.15 fold
Cc1cc(SCc2sc(-c3ccc(C(F)(F)F)c(F)c3)nc2C)ccc1OCC(=O)O [GW0742]	0.13 fold
